Assay results reported in patent US6492137B1, “Response element compositions and assays employing same” (The Salk Institute for Biological Studies, priority 1989, dated 2002).

How the values were obtained:
RAR = biological target: T1, RAR (Homo sapiens, UniProt P10276); experiment: Delta-MTV constructs, RA induction in CV-1 cells with cotransfected RAR expression vector; type: cell-based; settings: Delta-MTV-CAT constructs; CV-1 cells
T1 construct: expressed in transfected cells; host or cells: CV-1 (monkey kidney)
T1 sequence (P10276 1-462): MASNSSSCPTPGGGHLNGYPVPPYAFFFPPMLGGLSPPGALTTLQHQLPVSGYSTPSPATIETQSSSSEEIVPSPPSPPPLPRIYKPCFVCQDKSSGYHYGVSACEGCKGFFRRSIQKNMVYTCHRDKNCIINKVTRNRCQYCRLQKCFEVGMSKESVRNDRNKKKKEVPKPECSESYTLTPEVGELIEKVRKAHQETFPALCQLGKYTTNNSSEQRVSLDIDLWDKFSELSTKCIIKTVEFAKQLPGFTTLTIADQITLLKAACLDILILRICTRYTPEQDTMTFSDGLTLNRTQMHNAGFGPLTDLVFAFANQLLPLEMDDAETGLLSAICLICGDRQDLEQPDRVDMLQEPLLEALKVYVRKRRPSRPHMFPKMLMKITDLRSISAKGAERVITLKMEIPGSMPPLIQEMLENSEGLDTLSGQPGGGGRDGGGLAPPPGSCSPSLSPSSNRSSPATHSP
Procedure: Inspection of the sequences of βRE1, βRE2, and βRE3 (see FIG. 2b) identifies a tandem repeat of the 6 bp motif. The center to center separation of 11 bp between these repeats is one turn of the DNA helix. […] Apparently, a single half site element of the RARβ gene would reciprocally be responsive to the TR, ER, and/or other members of the receptor superfamily.
(§1) Cells were transfected in 10 cm dishes with 10 μg of DNA containing 5 μg of reporter plasmid, 1-2 μg of either RSV-LUC (a), or RSV-βGAL or pCH110 (c and d), pGEM4 as carrier DNA, and for the experiments shown in a and d, 1 μg of RSV-RAR expression vector or the same amount of an RSV vector generating a nonsense transcript. Cells were harvested 1 day after addition of retinoic acid. All CAT assays represent equivalent amounts of β-galactosidase activity; β-GAL assays were normalized to luciferase activity.

endogenous RA receptor = experiment: Delta-MTV-CAT constructs, RA induction in CV-1 cells without cotransfected RAR expression vector; type: cell-based, monkey
Procedure: as §1

[1] = system: F9 teratocarcinoma stem cells; experiment: CAT reporter transfection into RA responsive F9 teratocarcinoma stem cells; type: cell-based, mouse; settings: RA 1 μM, 24 hours; no transfected receptor
Procedure: For cotransfection assays, a monkey kidney cell line CV-1 was kept in Dulbecco's modified Eagle's medium (DMEM) supplemented with 10% charcoal-resin double split calf bovine serum. Transfections were performed via calcium-phosphate precipitation method as described by Umesono, et al. in Cell 57: 1139-1146 (1989), with 0.5 μg of a pRS receptor expression plasmid, 1.0 μg of a reporter CAT plasmid, 5 μg of pRAS-βGAL [Umesono, et al., Cell 57: 1139-1146 (1989)] as an internal control, and 8.5 μg of carrier plasmid pUC19. The cells were transfected for 8 hours; after washing the DNA precipitates, the cells were then incubated for an additional 36 hours with or without the ligand (T3, 100 nM; RA, 1 μM; 1,25-(OH)2 vitamin D3, 100 nM). Cell extracts were prepared for βGAL and CAT assays, as described by Umesono, et al., supra. Transfection of F9 teratocarcinoma cells was carried out employing a similar method except the cells were incubated for 12 hours in the presence of the DNA precipitates, and the RA was added at 1 μM for another 24 hours before harvesting the cells. 2, 5, and 4 μg of the reporter, pRAS-βGAL, and pUC19 were used, respectively.
Similarly, when the same set of reporters as in FIG. 4 were transfected into F9 cells, only MHC-R (5-nucleotide spacer) and TREp are potent RAREs. In contrast, its RARE antecedents (MHC-N, MHC+1, MHC-T) are inert.

RARα = biological target: T2, RARα (Homo sapiens, UniProt P10276); experiment: Gel retardation DNA-binding assay with RARα-expressing COS cell extracts; parameters: expressed in transfected cells; host or cells: COS cells (whole-cell extract); settings: for competition for RARα binding to 32P-labeled βRARE: unlabeled competitor oligonucleotide, COS cell extracts
T2 sequence (P10276 1-462): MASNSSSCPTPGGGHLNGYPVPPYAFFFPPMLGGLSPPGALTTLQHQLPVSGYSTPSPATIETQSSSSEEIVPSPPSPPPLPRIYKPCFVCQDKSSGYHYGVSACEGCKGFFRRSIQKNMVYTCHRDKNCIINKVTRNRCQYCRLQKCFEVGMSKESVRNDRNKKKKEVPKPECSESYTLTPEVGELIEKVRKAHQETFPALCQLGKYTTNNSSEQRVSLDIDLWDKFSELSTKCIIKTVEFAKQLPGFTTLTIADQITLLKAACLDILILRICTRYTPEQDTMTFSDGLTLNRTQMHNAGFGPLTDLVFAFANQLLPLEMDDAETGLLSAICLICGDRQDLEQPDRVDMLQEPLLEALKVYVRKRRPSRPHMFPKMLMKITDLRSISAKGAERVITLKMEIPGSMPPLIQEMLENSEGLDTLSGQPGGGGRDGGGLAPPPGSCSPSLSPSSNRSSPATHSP
Procedure: (§2) For DNA binding assays, COS cells were cultured in DMEM with 10% calf bovine serum and transfected by the calcium phosphate method with 20 μg of the pCMX receptor expression plasmid for 6 hours followed by a glycerol shock. After incubating the transfected COS cells for another 48 hours, the cells were harvested to prepare extracts for the DNA binding assay, carried out as described by Damm et al., Nature 339: 593-597 (1989). The extracts were made in 20 mM HEPES (pH 7.4), 0.4 M KCl, 2 mM DTT and 20% glycerol. A similar method was employed to prepare a whole cell extract from F9 stem cells. For the binding, 5 μg (COS) or 10 μg (F9) of proteins was incubated on ice for 20 minutes, first in 20 mM HEPES, 80 mM KCl, 1 mM DTT, 0.1% NP40, 2.5 μg of poly dI/dC, and 10% glycerol (cold competitor oligonucleotides, when included, were added during this pre-incubation period). Then 40 fmole of ^32P-labeled oligonucleotide probe (1-2×10^5 cpm, prepared by filling-in reaction using Klenow polymerase in the presence of α-^32P-dCTP) was added to the reaction mixture, followed by incubation at room temperature for 30 minutes. The receptor-DNA complexes were resolved by electrophoresis through 5% polyacrylamide gel containing 5% glycerol at 6 V/cm at room temperature.
Oligonucleotides listed in FIG. 3 were used as a probe to test specific DNA-binding of the RARα and TRβ in a gel retardation assay. On the βRARE, a faint background binding activity was detected in the mock transfected COS cell extract. […] In each case the result obtained from in vivo transactivation and in vitro DNA binding are consistent.
Using the mobility shift assay, the DNA-binding capacity of extracts from COS cells expressing TRβ and RARα to these sequences was also tested. […] This pattern is consistent with that of the in vivo activation (FIG. 4). A reciprocal pattern was obtained when the same oligonucleotides were used to compete RARα binding to the ^32P-labeled βRARE. […] This provides a striking example of the role of half-site spacing in generating a functional response element.

TRβ = biological target: T3, TRβ (Homo sapiens, UniProt P10828); experiment: Gel retardation DNA-binding assay with TRβ-expressing COS cell extracts; parameters: expressed in transfected cells; host or cells: COS cells (whole-cell extract); settings: unlabeled competitor oligonucleotide; COS cells expressing TRβ
T3 sequence (P10828 1-461): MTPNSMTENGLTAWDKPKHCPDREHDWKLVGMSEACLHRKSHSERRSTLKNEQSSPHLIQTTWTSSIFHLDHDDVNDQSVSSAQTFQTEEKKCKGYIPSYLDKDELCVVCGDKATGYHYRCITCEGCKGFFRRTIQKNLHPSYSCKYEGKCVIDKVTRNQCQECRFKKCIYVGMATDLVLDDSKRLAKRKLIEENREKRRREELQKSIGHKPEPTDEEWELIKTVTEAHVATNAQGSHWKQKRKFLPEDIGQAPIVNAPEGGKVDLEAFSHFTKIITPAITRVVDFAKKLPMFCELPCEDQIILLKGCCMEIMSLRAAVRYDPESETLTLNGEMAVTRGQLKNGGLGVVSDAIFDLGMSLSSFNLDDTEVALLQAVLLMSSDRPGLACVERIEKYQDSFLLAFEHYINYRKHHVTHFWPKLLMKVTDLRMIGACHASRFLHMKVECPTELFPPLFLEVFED
Procedure: as §2
Oligonucleotides listed in FIG. 3 were used as a probe to test specific DNA-binding of the RARα and TRβ in a gel retardation assay.
Using the mobility shift assay, the DNA-binding capacity of extracts from COS cells expressing TRβ and RARα to these sequences was also tested.

Substance | increase of induction by cotransfection of RAR-alpha expression vector (RAR) | RA-dependent induction in the absence of cotransfected RAR expression vector (endogenous RA receptor) | function as RARE in F9 cells [1] | RARα binding to labeled oligonucleotide probe (RARα; gel retardation, RARα COS cell extract) | competition for TRβ binding (mobility shift assay) (TRβ) | competition for RARα binding to 32P-labeled βRARE (RARα)
5′-AAGCTTAAG-GGTTCA-CCGAA-AGTTCA-CTCAGCTT-3′ (SEQ ID NO:7) (AAGCTTAAGGGTTCACCGAAAGTTCACTCAGCTT; listed as DNA, chemistry not given here) [βRE3, oligonucleotide including the β retinoic acid response element] | two-fold | robust RA-dependent induction |  |  |  | 
DR-5: perfect tandem repeat of AGGTCA hexamers separated by 5 nucleotides (SEQ ID NO:29) (AGCTTCAGGTCACCAGGAGGTCAGAGAGCT; DNA, backbone not given here; double-stranded DNA response element with agct overhangs, cloned into reporter) |  |  | functional RARE | specific protein-DNA complex |  | 
MHC-R: MHC-T with half-site spacing increased by one nucleotide (SEQ ID NO:24) (AGCTGGAGGTGAACAGGAGGTCAGCAAGCT; DNA, backbone not given here; double-stranded response element with agct overhangs, cloned into reporter plasmid) |  |  | potent RAREs |  | poor competitors | effective competitors
MHC-T: MHC-N with the AGGACA half-site corrected to AGGTCA (SEQ ID NO:23) (AGCTGGAGGTGACAGGAGGTCAGCAAGCT; DNA, backbone not given here; double-stranded response element with agct overhangs, cloned into reporter plasmid) |  |  | inert |  | efficient competition | fails to compete efficiently
